How the values were obtained:
HBV in 2.2.15 cells = experiment: 2.2.15 cells: viral product in cell lysates quantified via quantitative real time PCR; format: cell-based, hepatitis B virus (HBV); conditions: Hepatitis B virus, 120 h, day 5 post treatment, 50% reduction of viral product vs no drug controls, readout (qPCR, HBsAg or HBeAg) not specified for the column
Method in brief: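 HBV product was measured at day 5 by lysate qPCR or by supernatant HBsAg/HBeAg ELISA, in 2.2.15 cells seeded at 35,000/well and exposed to 5-fold compound dilution series (0.5% DMSO). EC50 is 50% reduction of viral product relative to untreated controls.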

[1] = Compound induced cellular toxicity in HepG2 cells, ATPlite 1Step; format: cell-based; conditions: human, three days exposure, 50% reduction of total ATP vs no drug controls
Method: At day 3, post seeding cells are treated with ATPlite 1Step according to the manufacturer's instructions.

With `CC(C)(C)[C@@H]1Cn2nc(-c3cccc4c3OC(F)(F)O4)cc2-c2cc(=O)c(C(=O)O)cn21` [Example 21, (R)-6-(tert-butyl)-2-(2,2-difluorobenzo[d][1,3]dioxol-4-yl)-10-oxo-5,6-dihydro-10H-pyrazolo[1,5-a]pyrido[2,2-c]pyrazine-12-carboxylic acid] as the compound, how does the EC50 (HBV in 2.2.15 cells) read?
Its EC50 is under 100 nM.

What about the CC50 at 3 days [1] of the same compound?
The CC50 at 3 days was over 25 µM.

With `C[C@@H]1Cn2nc(-c3ccc(F)cc3)c(-c3ccc(F)cc3)c2-c2cc(=O)c(C(=O)O)cn21` [Example 204, (R)-1,2-bis(4-fluorophenyl)-6-methyl-10-oxo-5,6-dihydro-10H-pyrazolo[1,5-a]pyrido[2,1-c]pyrazine-9-carboxylic acid] as the compound, how does the EC50 (HBV in 2.2.15 cells) read?
The EC50 was under 100 nM.

And the CC50 at 3 days [1]?
Its CC50 at 3 days is over 25 µM.

For `CC(C)(C)[C@@H]1Cn2nc(-c3cccc4cn[nH]c34)cc2-c2cc(=O)c(C(=O)O)cn21` [Example 67, (R)-6-(tert-butyl)-2-(1H-indazol-7-yl)-10-oxo-5,6-dihydro-10H-pyrazolo[1,5-a]pyrido[2,2-c]pyrazine-12-carboxylic acid], which EC50 (HBV in 2.2.15 cells) is on record?
Its EC50 is under 100 nM.

And the CC50 at 3 days [1]?
Its CC50 at 3 days is over 25 µM.

With `Cc1ccc(-c2c(C3CC3)nn3c2-c2cc(=O)c(C(=O)O)cn2[C@H](C(C)(C)C)C3)cc1` [Example 154, (R)-6-(tert-butyl)-2-cyclopropyl-10-oxo-1-(p-tolyl)-5,6-dihydro-10H-pyrazolo[1,5-a]pyrido[2,1-c]pyrazine-9-carboxylic acid] as the compound, how does the EC50 (HBV in 2.2.15 cells) read?
Its EC50 is under 100 nM.

And the CC50 at 3 days [1]?
Its CC50 at 3 days is over 25 µM.

What does the source list for `CC(C)(C)[C@@H]1Cn2nc(-c3c(F)cccc3F)cc2-c2cc(=O)c(C(=O)O)cn21` [Example 29, (R)-6-(tert-butyl)-2-(2,6-difluorophenyl)-10-oxo-5,6-dihydro-10H-pyrazolo[1,5-a]pyrido[2,2-c]pyrazine-12-carboxylic acid]?
EC50 (HBV in 2.2.15 cells): < 100 nM; CC50 at 3 days [1]: > 25 µM

With `CC(C)(C)[C@@H]1Cn2ncc(-c3ccc4c(c3F)OCO4)c2-c2cc(=O)c(C(=O)O)cn21` [Example 122, (R)-6-(tert-butyl)-1-(4-fluorobenzo[d][1,3]dioxol-5-yl)-10-oxo-5,6-dihydro-10H-pyrazolo[1,5-a]pyrido[2,1-c]pyrazine-9-carboxylic acid] as the compound, how does the EC50 (HBV in 2.2.15 cells) read?
Its EC50 is under 100 nM.

What about the CC50 at 3 days [1] of the same compound?
The CC50 at 3 days was over 25 µM.

For `CC(C)(C)[C@@H]1Cn2ncc(-c3ccoc3)c2-c2cc(=O)c(C(=O)O)cn21` [Example 102, (R)-6-(tert-butyl)-1-(furan-3-yl)-10-oxo-5,6-dihydro-10H-pyrazolo[1,5-a]pyrido[2,1-c]pyrazine-9-carboxylic acid], which EC50 (HBV in 2.2.15 cells) is on record?
Its EC50 is under 100 nM.

And the CC50 at 3 days [1]?
Its CC50 at 3 days is over 25 µM.

For `CC(C)(C)[C@@H]1Cn2nc(C3CC3)c(-c3ccccc3F)c2-c2cc(=O)c(C(=O)O)cn21` [Example 148, (R)-6-(tert-butyl)-2-cyclopropyl-1-(2-fluorophenyl)-10-oxo-5,6-dihydro-10H-pyrazolo[1,5-a]pyrido[2,1-c]pyrazine-9-carboxylic acid], which EC50 (HBV in 2.2.15 cells) is on record?
The EC50 was under 100 nM.

What about the CC50 at 3 days [1] of the same compound?
The CC50 at 3 days was over 25 µM.

Which EC50 (HBV in 2.2.15 cells) does the source give for `COc1cccc(-c2cc3n(n2)C[C@@H](C(C)(C)C)n2cc(C(=O)O)c(=O)cc2-3)c1` [Example 11, (R)-6-(tert-butyl)-2-(3-methoxyphenyl)-10-oxo-5,6-dihydro-10H-pyrazolo[1,5-a]pyrido[2,2-c]pyrazine-12-carboxylic acid] here?
Its EC50 is under 100 nM.

What about the CC50 at 3 days [1] of the same compound?
Its CC50 at 3 days is over 25 µM.

Which EC50 (HBV in 2.2.15 cells) does the source give for `COc1ccc(OC(F)(F)F)cc1-c1cc2n(n1)C[C@@H](C(C)(C)C)n1cc(C(=O)O)c(=O)cc1-2` [Example 33, (R)-6-(tert-butyl)-2-(2-methoxy-5-(trifluoromethoxy)phenyl)-10-oxo-5,6-dihydro-10H-pyrazolo[1,5-a]pyrido[2,2-c]pyrazine-12-carboxylic acid] here?
Its EC50 is under 100 nM.

What about the CC50 at 3 days [1] of the same compound?
Its CC50 at 3 days is over 25 µM.

Which results are given for `CC(C)(C)[C@@H]1Cn2nc(-c3ccc(F)cc3)c(-c3cccc(F)c3)c2-c2cc(=O)c(C(=O)O)cn21` [Example 168, (R)-6-(tert-butyl)-1-(3-fluorophenyl)-2-(4-fluorophenyl)-10-oxo-5,6-dihydro-10H-pyrazolo[1,5-a]pyrido[2,1-c]pyrazine-9-carboxylic acid]?
EC50 (HBV in 2.2.15 cells): < 100 nM; CC50 at 3 days [1]: 10 to 25 µM

Which EC50 (HBV in 2.2.15 cells) does the source give for `CC(C)[C@@H]1Cn2nc(C3CC3)c(-c3ccccc3)c2-c2cc(=O)c(C(=O)O)cn21` [Example 130, (R)-2-cyclopropyl-6-isopropyl-10-oxo-1-phenyl-5,6-dihydro-10H-pyrazolo[1,5-a]pyrido[2,1-c]pyrazine-9-carboxylic acid] here?
Its EC50 is under 100 nM.

What about the CC50 at 3 days [1] of the same compound?
Its CC50 at 3 days is over 25 µM.

With `COc1cccc(F)c1-c1cc2n(n1)C[C@@H](C(C)(C)C)n1cc(C(=O)O)c(=O)cc1-2` [Example 50, (R)-6-(tert-butyl)-2-(2-fluoro-6-methoxyphenyl)-10-oxo-5,6-dihydro-10H-pyrazolo[1,5-a]pyrido[2,2-c]pyrazine-12-carboxylic acid] as the compound, how does the EC50 (HBV in 2.2.15 cells) read?
Its EC50 is 200 to 1000 nM.

And the CC50 at 3 days [1]?
The CC50 at 3 days was over 25 µM.

For `COc1ccc(OC)c(-c2cc3n(n2)C[C@@H](C(C)(C)C)n2cc(C(=O)O)c(=O)cc2-3)c1OC` [Example 35, (R)-6-(tert-butyl)-10-oxo-2-(2,3,6-trimethoxyphenyl)-5,6-dihydro-10H-pyrazolo[1,5-a]pyrido[2,2-c]pyrazine-12-carboxylic acid], which EC50 (HBV in 2.2.15 cells) is on record?
The EC50 was 200 to 1000 nM.

And the CC50 at 3 days [1]?
Its CC50 at 3 days is over 25 µM.

With `CC(C)(C)[C@@H]1Cn2nc(C3CC3)c(-c3cncs3)c2-c2cc(=O)c(C(=O)O)cn21` [Example 163, (R)-6-(tert-butyl)-2-cyclopropyl-10-oxo-1-(thiazol-5-yl)-5,6-dihydro-10H-pyrazolo[1,5-a]pyrido[2,1-c]pyrazine-9-carboxylic acid] as the compound, how does the EC50 (HBV in 2.2.15 cells) read?
Its EC50 is under 100 nM.

And the CC50 at 3 days [1]?
Its CC50 at 3 days is over 25 µM.

For `CC(C)(C)[C@@H]1Cn2nc(-c3ccccc3F)cc2-c2cc(=O)c(C(=O)O)cn21` [Example 3, (R)-6-(tert-butyl)-2-(2-fluorophenyl)-10-oxo-5,6-dihydro-10H-pyrazolo[1,5-a]pyrido[2,2-c]pyrazine-12-carboxylic acid], which EC50 (HBV in 2.2.15 cells) is on record?
Its EC50 is under 100 nM.

And the CC50 at 3 days [1]?
The CC50 at 3 days was over 25 µM.

For `CC(C)[C@@H]1Cn2nc(C3CC3)c(-c3ccc(F)cc3)c2-c2cc(=O)c(C(=O)O)cn21` [Example 133, (R)-2-cyclopropyl-1-(4-fluorophenyl)-6-isopropyl-10-oxo-5,6-dihydro-10H-pyrazolo[1,5-a]pyrido[2,1-c]pyrazine-9-carboxylic acid], which EC50 (HBV in 2.2.15 cells) is on record?
Its EC50 is under 100 nM.

What about the CC50 at 3 days [1] of the same compound?
Its CC50 at 3 days is over 25 µM.

Which results are given for `Cn1cc(-c2cc3n(n2)C[C@@H](C(C)(C)C)n2cc(C(=O)O)c(=O)cc2-3)cn1` [Example 5, (R)-6-(tert-butyl)-2-(2-methyl-1H-pyrazol-4-yl)-10-oxo-5,6-dihydro-10H-pyrazolo[1,5-a]pyrido[2,2-c]pyrazine-12-carboxylic acid]?
EC50 (HBV in 2.2.15 cells): < 100 nM; CC50 at 3 days [1]: > 25 µM

With `C[C@@H]1Cn2nc(-c3ccccc3)c(-c3ccccc3)c2-c2cc(=O)c(C(=O)O)cn21` [Example 203, (R)-6-methyl-10-oxo-1,2-diphenyl-5,6-dihydro-10H-pyrazolo[1,5-a]pyrido[2,1-c]pyrazine-9-carboxylic acid] as the compound, how does the EC50 (HBV in 2.2.15 cells) read?
Its EC50 is under 100 nM.

And the CC50 at 3 days [1]?
Its CC50 at 3 days is over 25 µM.

For `CC(C)(C)[C@@H]1Cn2nc(-c3ccoc3)c(-c3ccoc3)c2-c2cc(=O)c(C(=O)O)cn21` [Example 96, (R)-6-(tert-butyl)-1,2-di(furan-3-yl)-10-oxo-5,6-dihydro-10H-pyrazolo[1,5-a]pyrido[2,1-c]pyrazine-9-carboxylic acid], which EC50 (HBV in 2.2.15 cells) is on record?
Its EC50 is under 100 nM.

What about the CC50 at 3 days [1] of the same compound?
Its CC50 at 3 days is over 25 µM.

For `COc1cccc(C)c1-c1cc2n(n1)C[C@@H](C(C)(C)C)n1cc(C(=O)O)c(=O)cc1-2` [Example 49, (R)-6-(tert-butyl)-2-(2-methoxy-6-methylphenyl)-10-oxo-5,6-dihydro-10H-pyrazolo[1,5-a]pyrido[2,2-c]pyrazine-12-carboxylic acid], which EC50 (HBV in 2.2.15 cells) is on record?
The EC50 was 200 to 1000 nM.

And the CC50 at 3 days [1]?
The CC50 at 3 days was over 25 µM.

Which EC50 (HBV in 2.2.15 cells) does the source give for `COc1ccc(-c2nn3c(c2-c2ccc(OC)cc2)-c2cc(=O)c(C(=O)O)cn2[C@H](C(C)(C)C)C3)cc1` [Example 98, (R)-6-(tert-butyl)-1,2-bis(4-methoxyphenyl)-10-oxo-5,6-dihydro-10H-pyrazolo[1,5-a]pyrido[2,1-c]pyrazine-9-carboxylic acid] here?
The EC50 was under 100 nM.

What about the CC50 at 3 days [1] of the same compound?
Its CC50 at 3 days is over 25 µM.

With `Cc1cc(-c2cc3n(n2)C[C@@H](C(C)(C)C)n2cc(C(=O)O)c(=O)cc2-3)c(F)cc1F` [Example 39, (R)-6-(tert-butyl)-2-(2,4-difluoro-5-methylphenyl)-10-oxo-5,6-dihydro-10H-pyrazolo[1,5-a]pyrido[2,2-c]pyrazine-12-carboxylic acid] as the compound, how does the EC50 (HBV in 2.2.15 cells) read?
The EC50 was under 100 nM.

What about the CC50 at 3 days [1] of the same compound?
The CC50 at 3 days was over 25 µM.

What does the source list for `CC(C)(C)[C@@H]1Cn2nc(-c3ccncc3F)cc2-c2cc(=O)c(C(=O)O)cn21` [Example 41, (R)-6-(tert-butyl)-2-(3-fluoropyridin-4-yl)-10-oxo-5,6-dihydro-10H-pyrazolo[1,5-a]pyrido[2,2-c]pyrazine-12-carboxylic acid]?
EC50 (HBV in 2.2.15 cells): < 100 nM; CC50 at 3 days [1]: > 25 µM

For `CC(C)[C@@H]1Cn2nc(-c3ccccc3F)c(-c3ccccc3F)c2-c2cc(=O)c(C(=O)O)cn21` [Example 171, (R)-1,2-bis(2-fluorophenyl)-6-isopropyl-10-oxo-5,6-dihydro-10H-pyrazolo[1,5-a]pyrido[2,1-c]pyrazine-9-carboxylic acid], which EC50 (HBV in 2.2.15 cells) is on record?
The EC50 was under 100 nM.

What about the CC50 at 3 days [1] of the same compound?
Its CC50 at 3 days is over 25 µM.

With `COc1ccc(O)c(-c2cc3n(n2)C[C@@H](C(C)(C)C)n2cc(C(=O)O)c(=O)cc2-3)c1` [Example 56, (R)-6-(tert-butyl)-2-(2-hydroxy-5-methoxyphenyl)-10-oxo-5,6-dihydro-10H-pyrazolo[1,5-a]pyrido[2,2-c]pyrazine-12-carboxylic acid] as the compound, how does the EC50 (HBV in 2.2.15 cells) read?
Its EC50 is under 100 nM.

And the CC50 at 3 days [1]?
Its CC50 at 3 days is over 25 µM.

Which results are given for `CC(C)(C)[C@@H]1Cn2cnc(-c3ccc(F)cc3)c2-c2cc(=O)c(C(=O)O)cn21` [Example 207, (R)-6-(tert-butyl)-1-(4-fluorophenyl)-10-oxo-5,6-dihydro-10H-imidazo[1,5-a]pyrido[2,1-c]pyrazine-9-carboxylic acid]?
EC50 (HBV in 2.2.15 cells): < 100 nM; CC50 at 3 days [1]: > 25 µM

— patent US12264159B2, “Functionalized heterocycles as antiviral agents” (Enanta Pharmaceuticals, Inc., priority 2018, dated 2025)
